We go through six molecules from patent US10294243B2, “Bicyclic compounds as pesticides” (BAYER CROPSCIENCE AKTIENGESELLSCHAFT, priority 2014, dated 2019).

Like-named read-outs stand apart in the source and are kept apart here.

The subject of data set [1] is Tetranychus urticae. Kind of data set: Tetranychus urticae - spray test, OP-resistant. It is filed as in vivo. The following applies: application rate 500 g/ha, bean leaf discs, after 6 days. The protocol: Tetranychus urticae—Spray Test, OP-Resistant
(§1) Emulsifier: alkylaryl polyglycol ether
After 6 days, the efficacy in % is determined. 100% means that all the spider mites have been killed; 0% means that none of the spider mites have been killed.

Data set [2] deals with Phaedon cochleariae. Kind of data set: Phaedon cochleariae - spray test. It is filed as in vivo. The following applies: application rate 500 g/ha, Chinese cabbage leaf discs, after 7 days.
Source text: Phaedon cochleariae—Spray Test
as §1

Data set [3] has as its system Spodoptera frugiperda. The following applies: application rate 500 g/ha, maize leaf discs, after 7 days. As for the experimental part:
Spodoptera frugiperda—Spray Test
Solvent: 78.0 parts by weight of acetone • • 1.5 parts by weight of dimethylformamide
as §1
(§2) To produce further test concentrations, the preparation is diluted with emulsifier-containing water.
After 7 days, the efficacy in % is determined 100% means that all the caterpillars have been killed; 0% means that no caterpillars have been killed.

The nature of data set [4]: log P by HPLC on reversed-phase C18 columns (OECD Guideline 117); method [a] acidic pH 2.7, method [b] neutral pH 7.8. The data set is classed as physicochemical. The conditions noted are these: for chromatographic logP: reversed-phase C18 HPLC column.
Data set [5] concerns Myzus persicae. The data set can be described thus: Myzus persicae - spray test (bell pepper plants). The data set is classed as in vivo. The conditions noted are these: application rate 4 ppm, after 6 days. As for the experimental part: Myzus persicae—Spray Test Solvent: 7 parts by weight of dimethylformamide Emulsifier: alkylaryl polyglycol ether […] […] If the addition of ammonium salts or/and penetrants is required, these are each added in a concentration of 1000 ppm to the preparation solution. Bell pepper plants (Capsicum annuum) severely infested with the green peach aphid (Myzus persicae) are treated by spraying with the active compound preparation in the desired concentration.

Data set [6] concerns Myzus persicae. The data set can be described thus: Myzus persicae - spray test (Chinese cabbage leaf discs). It is filed as in vivo. The following applies: application rate 500 g/ha, after 6 days; for pest or weed control at 500 g/ha: Myzus persicae, foliar, 144 h, read-out: efficacy (aphids killed). The protocol: Myzus persicae—Spray Test
Solvent: 78 parts by weight of acetone • • 1.5 parts by weight of dimethylformamide
as §1, §2
After 6 days, the efficacy in % is determined 100% means that all the aphids have been killed; 0% means that none of the aphids have been killed.

In data set [7] the test system is Meloidogyne incognita. The data set can be described thus: Meloidogyne incognita test. It is filed as in vivo. The conditions noted are these: application rate 20 ppm, lettuce, after 14 days. As for the experimental part: Meloidogyne Incognita Test
Solvent: 125.0 parts by weight of acetone
Vessels are filled with sand, active compound solution, an egg/larvae suspension of the southern root-knot nematode (Meloidogyne incognita) and lettuce seeds. The lettuce seeds germinate and the plants develop. The galls develop on the roots.
After 14 days, the nematicidal efficacy in % is determined by the formation of galls. 100% means that no galls were found; 0% means that the number of galls on the treated plants corresponds to the untreated control.

Data set [8] concerns Boophilus microplus. The data set can be described thus: Boophilus microplus - injection test. The conditions noted are these: application rate 20 μg/animal, injection into engorged adult female cattle ticks, assessed after 7 days. It is filed as in vivo. The protocol:
Boophilus microplus—Injection Test
Solvent: dimethyl sulphoxide
To produce a suitable preparation of active compound, 10 mg of active compound are mixed with 0.5 ml of solvent and the concentrate is diluted with solvent to the desired concentration.
1 μl of the active compound solution is injected into the abdomen of 5 engorged adult female cattle ticks (Boophilus microplus). The animals are transferred into dishes and kept in a climate-controlled room.
Efficacy is assessed after 7 days by laying of fertile eggs. Eggs which are not visibly fertile are stored in a climate-controlled cabinet until the larvae hatch after about 42 days. An efficacy of 100% means that none of the ticks has laid any fertile eggs; 0% means that all the eggs are fertile.

Setting [9] is: HPLC reversed-phase C18, method [a] acidic pH 2.7.
Where [10] appears, read: HPLC reversed-phase C18, method [b] neutral pH 7.8.
The mark [11] stands for this setting: HPLC reversed-phase C18, method [a] acidic pH 2.7, read-out: logP[a].
[12] abbreviates: HPLC reversed-phase C18, method [b] neutral pH 7.8, read-out: logP[b].

In the case of `Cc1ccc(-n2cnc3nc(-c4cccnc4)sc3c2=O)cc1` [Compound 11], the “efficacy (spider mites killed)” value in data set [1] turned out to be 90%. Further, in data set [2], the “efficacy (beetle larvae killed)” value came to 100%. Further, the “efficacy (caterpillars killed)” value in data set [3] is on record as 100%. Also, the “logP[a]” value in data set [4] (setting [9]) came out at 1.92. Also, the “logP[b]” value in data set [4] (setting [10]) was determined as 1.96.

`COc1cccc(-n2cnc3nc(-c4cccnc4)sc3c2=O)c1` [Compound 10, 6-(3-Methoxyphenyl)-2-(pyridin-3-yl)[1,3]thiazolo[4,5-d]pyrimidin-7(6H)-one]: in data set [5], the “efficacy (kill of aphids)” value stood at 96%. In addition, the chromatographic logP in data set [4] (setting [11]) was determined as 1.73; in data set [4] (setting [12]) it was 1.76.

As for `O=c1c2sc(-c3cccnc3)nc2ncn1-c1cc(SCC2CC2)ccc1F` [Compound 44], in data set [5], the “efficacy (kill of aphids)” value is listed as 100%. For the same molecule, the “logP[a]” value in data set [4] (setting [9]) was determined as 2.91. Further, the “logP[b]” value in data set [4] (setting [10]) came to 3.00.

For `O=c1c2sc(-c3cccnc3)nc2ncn1-c1ccc([S+]([O-])C(F)(F)F)cc1` (stereo not shown) [Compound 63, 2-(Pyridin-3-yl)-6-{4-[(trifluoromethyl)sulphinyl]phenyl}[1,3]thiazolo[4,5-d]pyrimidin-7(6H)-one], the pest or weed control at 500 g/ha in data set [6] turned out to be 90%. Further, the “nematicidal efficacy (formation of galls)” value in data set [7] came out at 90%. Also, the chromatographic logP in data set [4] (setting [11]) worked out at 2.03; in data set [4] (setting [12]) it was 1.99.

On to `Cc1cc(F)c(-n2c(C)nc3nc(-c4cccnc4)sc3c2=O)cc1[S+]([O-])CC(F)(F)F` (stereo not shown) [Compound 57, 6-{2-Fluoro-4-methyl-5-[(2,2,2-trifluoroethyl)sulphinyl]phenyl}-5-methyl-2-(pyridin-3-yl)[1,3]thiazolo[4,5-d]pyrimidin-7(6H)-one], for which the “efficacy (spider mites killed)” value in data set [1] is recorded as 90%. In data set [6], the pest or weed control at 500 g/ha worked out at 100%. Besides, the chromatographic logP amounted to 2.25 in data set [4] (setting [11]) and 2.05 in data set [4] (setting [12]). Further, the “efficacy (laying of fertile eggs)” value in data set [8] came to 100%.

For the molecule `Cn1ccc(Cn2cnc3nc(-c4cccnc4)sc3c2=O)n1` [Compound 37], the “efficacy (aphids killed)” value in data set [6] is on record as 90%. In addition, the “efficacy (beetle larvae killed)” value in data set [2] came to 100%. In addition, the “efficacy (caterpillars killed)” value in data set [3] is listed as 100%. Further, the “logP[a]” value in data set [4] (setting [9]) was 0.97. The “logP[b]” value in data set [4] (setting [10]) is 1.08.
